The values below come from paper PMC5907308, “21st Brazilian Diabetes Society Congress” (Diabetology & Metabolic Syndrome, 2018).

Where two headings read alike, the source gives them in different places.

The subject of one data set is Gram-positive. Description: Antibiogram of tissue fragment cultures of infected diabetic foot ulcers, Gram-positive. It counts as cell-based. The note with it: 51 cultures of tissue fragment, WHONET 5.6, Graphic 2. From the text:
DFU patients with tissue fragment culture and antibiogram were included in the study sample. Microbiota resistance profile analyzed through WHO freeware softwares BACLINK 2.0 and WHONET 5.6.

Data set [1] concerns Slc2a4/GLUT4 expression in 3T3-L1 cell line adipocytes. The data set can be described thus: Slc2a4/GLUT4 expression in adipocytes (Western blotting, RTqPCR). The note with it: 24 h; E2 10 nM; PPT 10 nM; DPN 100 nM, in the presence or absence of E2. The data set is classed as cell-based. As for the experimental part:
It is known that estradiol (E2) via its receptors, ER-alpha and ER-beta, regulates the gene expression through direct binding to DNA, or through interactions with transcription factors, among them SP1 (Sp1 transcription factor). […] Thus, the role of SP1 in the expression of estradiol-mediated Slc2a4/GLUT4 in 3T3-L1 cell line adipocytes was evaluated in an attempt to understand the role of each estradiol receptors in this regulation. For this, the adipocytes were treated with 10 nM estradiol plus 0.05% DMSO (used to solubilize the ER agonists) for 24 h. Cells were also cultured with selective agonists of the different ER isoforms. To evaluate the ER-alpha, the PPT was used, in the concentration of 10 nM, with or without 10 nM of E2 (10E2 + PPT); to evaluate the ER-beta, the DPN was used in the concentration of 100 nM, with or without 10 nM of E2 (10E2 + DPN); always for 24 h. In the control group (0E2), cells were treated with only 0.05% DMSO (vehicle of agonists). The analyzes were: quantification of total GLUT4 protein, nuclear SP1 and nuclear ER-alpha/beta (Western blotting); expression of the Slc2a4 and Sp1 (RTqPCR) genes; and binding activity of the ERs to the SP1 binding site on the Slc2a4 promoter (electrophoretic mobilization, EMSA). Treatment with E2 increased the expression of Slc2a4/GLUT4. […] However, it was observed that both ERalpha and ER-beta activation increased the nuclear content of the transcription factor SP1, however, only the ER-alpha effect, especially isolated, seems to involve SP1 in the observed regulation.
For orientation: Immunoblotting shows a protein as a band on a membrane.

Data set [2] concerns healthy and non-diabetic women. The note with it: after 7 days. As for the experimental part:
Methods: Twenty healthy and non-diabetic women (19–37 years old) were evaluated at baseline and 7 days after dapagliflozin (10 mg/day), maintaining their regular lifestyle. Body mass index (BMI), sagittal abdominal diameter, body composition by electrical bioimpedance and energy expenditure of resting and oxidation of energetic substrates in fasting by indirect calorimetry were analyzed. Functional magnetic resonance imaging detected the activation of brain areas against the stimulation of glucose and dapagliflozin. From the oral glucose tolerance test (TTOG), insulin sensitivity, hepatic insulin extraction and beta-cell function were assessed by mathematical modeling. Moreover, glucose, insulin, peptide C, glucacon, glycated hemoglobin, adiponectin and free fatty acids were measured.

Data set [3] concerns patient with type 2 diabetes. The note with it: in vivo. As for the experimental part:
An overweight person (BMI 37.4 kg/m^2) with a 9-year history of type 2 diabetes had been taking metformin (1 g/day), glyburide (10 mg/day) and vildaglipitin (100 mg/day) for 7 years. They were admitted for elective bariatric surgery and stopped their medications a day before. […] It is known that there are some factors that contribute for DKA, like decreasing in-carbohydrate intake, infection or reduction of insulin therapy.

The next data set concerns C57BL/6 mice. As for the experimental part:
Methods: C57BL/6 mice received vehicle or dapagliflozin (1, 5 or 10 mg/kg) by gavage once a day for 2 weeks. Body weight and food intake were evaluated at treatment times 0, 7 and 14 days. At the end of the treatment, glucose tolerance was evaluated by ipGTT as well as epididymal adipose tissue weight and neurotransmitters by immunofluorescence.

For the next data set, the system named is patients with DM1. As for the experimental part: Methods: Observational and retrospective study in which they were analysed the medical recordo f patients with DM1 who made use of this medication in dose of 10 mg/day through 3-6 months.
In data set [4] the test system is patient with type 2 diabetes mellitus. As for the experimental part:
Case report: M.G.G.A, person, married, sought an endocrinologist in 2014 due to the diagnosis of type 2 diabetes mellitus 3 years ago, they used glimeperide 4 mg/day and metformin (MTF) 1 g/day. They were hypertensive and dyslipidemic, already under treatment, and reported difficulty in losing and maintaining weight for several years. They denied physical activity (PA) practice for 1 month (before walking 3x/week) and in a 24-hour diet reminder there was an excess of simple carbohydrate (SC) intake and saturated fat (SF). […] The patient was oriented to change their lifestyle and it was also requested exams. […] At this time, due financial limitation, they were directed to maintain medications, prescribed vitamin D3 14,000 IU/week and stimulated lifestyle change (LC).

Data set [5] concerns patients after Roux-en-Y gastric bypass. Description: Postprandial hyperinsulinemic hypoglycemia after RYGB, case series. The data set is classed as in vivo, human. The note with it: Case 1. As for the experimental part:
Cases report: Case (1) A person developed postprandial hypoglycemic episodes 6 years after Roux-en-Y gastric bypass (RYGB). A mixed meal tolerance test (MMTT, 500 kcal, 20% protein, 20% fat and 60% carbohydrates) was performed, leading to symptomatic postprandial hyperinsulinemic hypoglycemia (PHH) with a nadir of 45 mg/dL at 120 min (insulin of 8 mU/L; C-peptide of 3.21 ng/mL). […] Cases 2 and 3). Two […] women presented hypoglycemia following meals 3 and 5 years after RYGB. MMTT (120 min): glycemia of 34 mg/dL, insulin of 17 mU/L and C-peptide of 6.23 ng/mL and, in the second one, glycemia of 52 mg/dL, insulin of 9 mU/L and C-peptide of 2.7 ng/mL. PT and MRCP were normal in both cases. […] Case 4). A person who underwent RYGB 1.5 years ago reported hypoglycemic episodes in the last 6 months. MMTT: glycemia of 26 mg/dL at 150 min, insulin of 34 mU/L and C-peptide of 6.03 ng/mL. […] They were submitted to distal pancreatectomy and symptoms disappeared after diazoxid and hydrochlorothiazide. Case 5). A person developed hypoglycemia 10 years after RYGB. […] MMTT: glycemia of 43 mg/dL at 120 min, insulin of 100 mU/L and C-peptide of 1.95 ng/mL. […] Antiinsulin antibodies were negative in all cases (Table 1).

Another data set deals with child with CGL type 2. Description: Case report: high doses of insulin in congenital generalized lipodystrophy. It counts as in vivo, human. The note with it: continuous IV infusion of RI raised to 26.6 IU/kg/day. As for the experimental part: Case: Child with clinical diagnosis of CGL type 2 and diagnosis of diabetes for 1 year. Using Glargina and Lispro insulin basal/bolus (5.1 IU/kg/day) presented mean daily capillary glycemia above 600 mg/dl, associated with irritability, low weight and voracious appetite. Interned for intravenous insulin therapy and nutritional adjustment with standardized diet of 1600 kcal/day fractionated in 7 meals. Initiated continuous infusion of regular insulin (RI), 6.1UI/kg/day. […] Subsequently, it was modified to intramuscular administration, in 5 application times, without differences in glycemic averages. On the 36 th day, Degludeca insulin was introduced (9.3 IU/kg/day) associated with RI (18.2 U/kg/day), evolving within the first 24 h with improved glycemia (180 ± 42 mg/dl). […] After approximately fivefold increase in the initial insulin dose, there was improvement in glycemia, irritability, weight gain and decreased appetite.

For the molecule `CO/N=C(\C(=O)N[C@@H]1C(=O)N2C(C(=O)O)=C(CSc3nc(=O)c(=O)[nH]n3C)CS[C@H]12)c1csc(N)n1` [Ceftriaxone], the “%R (resistance), Gram-positive” value in the data set with Gram-positive worked out at 70%.

`N#CC(Cc1ccc(O)cc1)c1ccc(O)cc1` (stereo not drawn) [DPN]: the Slc2a4/GLUT4 expression entry in data set [1] was “decreased”.

`CCOc1ccc(Cc2cc([C@@H]3O[C@H](CO)[C@@H](O)[C@H](O)[C@H]3O)ccc2Cl)cc1` [Dapaglifozin, dapagliflozin] had an adiponectin levels in [2] (3.2 ± 1.4 at baseline, p = 0.02) of 5.7 ± 3.3 µg/mL. The insulinemia in data set [2] (5.7 ± 3.6 at baseline, p = 0.05) is given as 3.9 ± 3.5 mU/mL. Besides, the BMI in data set [2] (21.7 ± 2.0 at baseline, p = 0.05) is given as 21.5 ± 2.0 kg/m^2. This molecule showed a fat percentage in data set [2] (28.4 ± 6.3 at baseline, p = 0.46) of 27.6 ± 4.0%. This molecule also displayed a glycemia in data set [2] (75 ± 7 at baseline, p = 0.02) of 71 ± 7 mg/dL. For the same molecule, in data set [3], the “arterial pH at readmission” value came to 7.23, the bicarbonate at readmission is recorded as 5 mEq/L and the glucose at readmission was 165 mg/dL. Further, the “body weight gain (mean)” value in the data set with C57BL/6 mice (1, 5 or 10 mg/kg, 2 weeks, p < 0.05) was 0.56 ± 1.1 g. Besides, the food intake entry in the data set with C57BL/6 mice (2 weeks) is “did not alter food intake significantly”. Moreover, the “fasting glycemia (mean)” value in the data set with C57BL/6 mice (2 weeks, p < 0.05) was found to be 165.6 ± 28.8 mg/dL. Also, the “epididymal adipose mass (mean)” value in the data set with C57BL/6 mice (2 weeks, p = 0.13) was 0.15 ± 0.02 g. Further, in the data set on C57BL/6 mice (ipGTT, p < 0.05), the “area under glucose curve during the glucose tolerance test (mean)” value is given as 28,078 ± 5623.5 arbitrary units. Besides, the “glycosuria (mean)” value in the data set on C57BL/6 mice (min = 30, max = 1221, p < 0.05) was determined as 307.2 mg/dL. The “average BMI after treatment” value in the data set with patients with DM1 (26.1 before, p = 0.002) was found to be 25.4 kg/m^2. Also, in the data set on patients with DM1 (120 mmHg before, p = 0.02), the “systolic blood pressure, median after therapy” value came to 115 mmHg. Moreover, in the data set on patients with DM1 (in vivo), the patients with ketoacidosis is reported as 8.3% and the “patients with pain or pruritus on genital region” value came to 33.3%. Also, in the data set with patients with DM1 (n = 12), the “patients with urinary tract infection (UTI)” value was 8.3%. Also, the “average weight after therapy” value in the data set with patients with DM1 (n = 12, 68.3 kg before, p = 0.002) is given as 65.3 kg. Further, in [4] (9 months of DAPA 10 mg/day and MTF 1 g/day, 78.6 kg before), the “weight (W)” value is on record as 69.9 kg. In data set [4] (9 months, 33.14 before), this molecule yielded a BMI of 29.47 kg/m^2. Moreover, in data set [4] (9 months, 108 cm before), the “abdominal circumference (AC)” value worked out at 98 cm. Further, in data set [4] (9 months, 163 before), the “postprandial glycemia (PPG)” value is 152 mg/dL. Moreover, in [4] (9 months, 166 before), the “fasting glycemia (FG)” value was determined as 118 mg/dL. This molecule registered a Hb1Ac in data set [4] (9 months, […] before) of 7.0%. In addition, in data set [4] (during 3 years of follow-up), the HbA1c result is recorded as “around 6.8%” and the “weight (W)” value was 69 kg.

For `C[C@]12CC[C@@H]3c4ccc(O)cc4CC[C@H]3[C@@H]1CC[C@@H]2O` [E2, estradiol], the Slc2a4/GLUT4 expression entry in data set [1] was “increased”.

`CC[C@H]1OC(=O)[C@H](C)[C@@H](O[C@H]2C[C@@](C)(OC)[C@@H](O)[C@H](C)O2)[C@H](C)[C@@H](O[C@@H]2O[C@H](C)C[C@H](N(C)C)[C@H]2O)[C@](C)(O)C[C@@H](C)C(=O)[C@H](C)[C@@H](O)[C@]1(C)O` [Erythromycin]: in the data set on Gram-positive, the “%R (resistance), Gram-positive” value turned out to be 70%.

As for `Cc1onc(-c2ccccc2)c1C(=O)N[C@@H]1C(=O)N2[C@@H]1SC(C)(C)[C@@H]2C(=O)O` [Oxacillin], the “%R (resistance), Gram-positive” value in the data set with Gram-positive amounted to 70%.

Take `CCCc1c(-c2ccc(O)cc2)nn(-c2ccc(O)cc2)c1-c1ccc(O)cc1` [PPT]: the Slc2a4/GLUT4 expression result in data set [1] is listed as “increase”.

For `CC1=Nc2ccc(Cl)cc2S(=O)(=O)N1` [diazoxid], the “clinical response of postprandial hypoglycemia” value in data set [5] is “hypoglycemia was avoided”.

RI: regular insulin returned a mean capillary glycemia in the data set on child with CGL type 2 of 283 ± 99 mg/dL.
